14 compounds from US12649750B2, “Macrocyclic compounds, compositions, and methods of using thereof” (Sionna Therapeutics Inc., priority 2022, dated 2026) can be followed below.

The target in one assay is T1, NBD1 (Homo sapiens, UniProt P13569).
T1 construct: Purified recombinant NBD1 was produced using previously described methods; made in house
Briefly: Aggregation analysis using differential static light scattering (DSLS), thermal stability of NBD1 (ΔTagg). In kind it is binding. The following applies: ΔTagg versus DMSO control, NBD1 0.2 mg/ml. In short, it runs like this:
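Read-out is ΔTagg: the aggregation temperature, taken at the inflection of the light-scattering curve, less the average of DMSO control wells. Recombinant NBD1 (0.2 mg/ml, pH7.6 buffer containing 2 mM ATP) with test compound was heated at 1° C. per minute up to 70° C.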

The target in a further assay is T2, CFTR (Homo sapiens, UniProt P13569, DEL508-508).
T2 construct: Primary human bronchial epithelial cells from a ΔF508 homozygous CF donor; host or cells: primary human bronchial epithelial cells (CF-HBE), ΔF508 homozygous donor
Briefly: TECC24 AUC fold over DMSO @10 μM, CFTR-mediated transepithelial chloride transport in CF-HBE cells. In kind it is cell-based. Conditions: test agent AUC divided by DMSO vehicle AUC, primary CF-HBE cells, ΔF508 homozygous donor, 48 hours incubation. In short, it runs like this: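 ΔF508-homozygous primary bronchial epithelial cells incubated 48 h at 36.5° C with compound (10 μM) in IL-13-containing medium, then TECC24 current-clamp recording in pH 7.4 Hepes saline with benzamil 10 μM, forskolin 10 μM, then CFTR inhibitor-172 20 μM. Equivalent Cl− current AUC between forskolin and inhibitor, expressed as fold over DMSO.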

T2 sequence (P13569 with tags, fused parts or gaps DEL508-508): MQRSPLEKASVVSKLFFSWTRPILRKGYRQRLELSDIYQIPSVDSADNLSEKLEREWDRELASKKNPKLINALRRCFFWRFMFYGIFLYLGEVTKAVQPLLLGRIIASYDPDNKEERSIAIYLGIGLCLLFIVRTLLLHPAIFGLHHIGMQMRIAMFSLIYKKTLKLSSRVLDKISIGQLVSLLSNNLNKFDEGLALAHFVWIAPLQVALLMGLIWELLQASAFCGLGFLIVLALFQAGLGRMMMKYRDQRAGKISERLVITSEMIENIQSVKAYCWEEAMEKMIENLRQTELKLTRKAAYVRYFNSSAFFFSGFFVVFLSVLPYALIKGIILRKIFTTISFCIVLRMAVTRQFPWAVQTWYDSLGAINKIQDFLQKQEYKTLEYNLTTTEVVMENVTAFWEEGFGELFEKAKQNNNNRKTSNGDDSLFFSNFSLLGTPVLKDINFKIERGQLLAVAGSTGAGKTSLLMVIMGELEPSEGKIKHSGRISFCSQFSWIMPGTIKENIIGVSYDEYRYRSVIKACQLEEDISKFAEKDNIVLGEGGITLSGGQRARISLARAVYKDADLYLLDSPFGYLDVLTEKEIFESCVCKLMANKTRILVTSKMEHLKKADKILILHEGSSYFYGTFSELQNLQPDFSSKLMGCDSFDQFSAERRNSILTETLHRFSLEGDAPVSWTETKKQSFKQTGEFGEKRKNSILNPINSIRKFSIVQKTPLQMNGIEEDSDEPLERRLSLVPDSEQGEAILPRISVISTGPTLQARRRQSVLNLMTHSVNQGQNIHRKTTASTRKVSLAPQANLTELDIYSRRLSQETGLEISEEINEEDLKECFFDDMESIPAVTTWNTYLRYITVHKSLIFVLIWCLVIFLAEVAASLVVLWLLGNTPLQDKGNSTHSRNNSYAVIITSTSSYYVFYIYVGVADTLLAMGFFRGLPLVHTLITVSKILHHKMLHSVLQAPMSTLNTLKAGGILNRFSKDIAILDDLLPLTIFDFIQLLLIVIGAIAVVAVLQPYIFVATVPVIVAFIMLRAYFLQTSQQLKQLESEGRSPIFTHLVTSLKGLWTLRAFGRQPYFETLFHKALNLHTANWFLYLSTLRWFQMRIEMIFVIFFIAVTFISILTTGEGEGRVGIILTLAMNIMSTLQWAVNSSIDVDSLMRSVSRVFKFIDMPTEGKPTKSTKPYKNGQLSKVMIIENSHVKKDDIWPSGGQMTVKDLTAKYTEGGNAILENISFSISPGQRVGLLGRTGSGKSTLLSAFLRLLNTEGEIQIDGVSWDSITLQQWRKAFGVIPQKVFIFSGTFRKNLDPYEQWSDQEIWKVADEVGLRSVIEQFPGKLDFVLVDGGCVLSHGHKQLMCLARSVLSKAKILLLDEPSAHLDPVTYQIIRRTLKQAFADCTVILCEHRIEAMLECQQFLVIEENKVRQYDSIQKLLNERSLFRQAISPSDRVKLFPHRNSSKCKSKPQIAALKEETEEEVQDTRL
T1 sequence (P13569 423-646 limits assumed): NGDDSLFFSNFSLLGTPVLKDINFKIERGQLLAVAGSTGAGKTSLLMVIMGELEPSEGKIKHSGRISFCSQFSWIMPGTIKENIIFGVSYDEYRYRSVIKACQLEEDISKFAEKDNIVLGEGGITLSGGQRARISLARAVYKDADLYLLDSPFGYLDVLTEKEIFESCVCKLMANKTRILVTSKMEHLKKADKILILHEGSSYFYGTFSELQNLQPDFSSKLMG

As to `CC(CC(=O)O)c1cccc(C2CCCC(C)(C)CS(=O)(=O)CCc3c(c(F)cc4[nH]ccc34)Oc3cccc(c3)-c3ccnn32)c1` (stereo not shown) [Compound 53, 3-[3-(23-Fluoro-11,11-dimethyl-13,13-dioxo-25-oxa-13lambda6-thia-5,6,20-triazapentacyclo[24.3.1.02,6.016,24.017,21]triaconta-1(30),2,4,16,18,21,23,26,28-nonaen-7-yl)phenyl]butanoic acid], at NBD1, the “DSLS 3D (100 μM ΔT)” value was “A (an ΔTagg value less than or equal to 5 °C is marked “A”)”. For the same compound, the “TECC (AUC, 10 μM)” value on CFTR is listed as “A (a TECC value less than 12 is marked “A”)”.
In the case of `CC1(C)CCCC(c2cccc(CCC(=O)O)c2)n2ccc(n2)-c2cc(ccc2F)Oc2c(F)cc3[nH]cnc3c2CCS(=O)(=O)C1` (stereo not shown) [Compound 57, 3-[3-(22,28-Difluoro-10,10-dimethyl-12,12-dioxo-24-oxa-12λ6-thia-5,17,19,30-tetrazapentacyclo[23.3.1.12,5.015,23.016,20]triaconta-1(29),2(30),3,15,17,20,22,25,27-nonaen-6-yl)phenyl]propanoic Acid], at NBD1, the “DSLS 3D (100 μM ΔT)” value is “B (a value above 5 °C and less than or equal to 10 °C is marked “B”)”. Moreover, the “TECC (AUC, 10 μM)” value on CFTR is “C (a value between 20 and 80 is marked “C”)”.
Consider `CC1(C)COCC(c2cccc(CCC(=O)O)c2)n2ccc(n2)-c2cc(ccc2F)Oc2c(F)cc3[nH]ccc3c2CCS(=O)(=O)C1` (stereo not shown) [Compound 58, 3-[3-(22,28-Difluoro-10,10-dimethyl-12,12-dioxo-8,24-dioxa-12λ6-thia-5,19,30-triazapentacyclo[23.3.1.12,5.015,23.016,20]triaconta-1(29),2(30),3,15,17,20,22,25,27-nonaen-6-yl)phenyl]propanoic Acid], for which the “DSLS 3D (100 μM ΔT)” value on NBD1 is “C (a value greater than 10 °C and less than or equal to 25 °C is marked “C”)”. The “TECC (AUC, 10 μM)” value on CFTR is “B (a value between 12-20 is marked “B”)”.
As for `CC1(C)COCCC(c2cccc(CCC(=O)O)c2)n2ccc(n2)-c2cc(ccc2F)Oc2c(F)cc3[nH]ccc3c2CS(=O)(=O)C1` (stereo not shown) [Compound 59, 3-[3-(22,28-Difluoro-11,11-dimethyl-13,13-dioxo-9,24-dioxa-13λ6-thia-5,19,30-triazapentacyclo[23.3.1.12,5.015,23.016,20]triaconta-1(29),2(30),3,15,17,20,22,25,27-nonaen-6-yl)phenyl]propanoic Acid], at NBD1, the “DSLS 3D (100 μM ΔT)” value was “C (a value greater than 10 °C and less than or equal to 25 °C is marked “C”)”. Also, on CFTR, the “TECC (AUC, 10 μM)” value was “C (a value between 20 and 80 is marked “C”)”.
Regarding `CC1(C)COCCC(c2cccc(CCC(=O)O)c2)n2nccc2-c2cc(ccc2F)Oc2c(F)cc3[nH]ccc3c2CS(=O)(=O)C1` (stereo not shown) [Compound 60, 3-[3-(23,29-Difluoro-12,12-dimethyl-14,14-dioxo-10,25-dioxa-14λ6-thia-5,6,20-triazapentacyclo[24.3.1.02,6.016,24.017,21]triaconta-1(30),2,4,16,18,21,23,26,28-nonaen-7-yl)phenyl]propanoic Acid], at NBD1, the “DSLS 3D (100 μM ΔT)” value is “A (an ΔTagg value less than or equal to 5 °C is marked “A”)”. Further, the “TECC (AUC, 10 μM)” value on CFTR is given as “A (a TECC value less than 12 is marked “A”)”.
Regarding `Cn1cc2nc1-c1cc(ccc1F)Oc1c(F)cc3[nH]ccc3c1CCS(=O)(=O)CC(C)(C)CCCC2(C)c1cccc(CC(=O)O)c1` (stereo not shown) [Compound 61, 2-[3-(22,28-Difluoro-3,6,10,10-tetramethyl-12,12-dioxo-24-oxa-12lambda6-thia-3,19,30-triazapentacyclo[23.3.1.12,5.015,23.016,20]triaconta-1(29),2(30),4,15,17,20,22,25,27-nonaen-6-yl)phenyl]acetic Acid], at NBD1, the “DSLS 3D (100 μM ΔT)” value was “C (a value greater than 10 °C and less than or equal to 25 °C is marked “C”)”. Also, the “TECC (AUC, 10 μM)” value on CFTR is on record as “B (a value between 12-20 is marked “B”)”.
In the case of `CCn1nc2nc1-c1cc(ccc1F)Oc1c(F)cc3[nH]ccc3c1CCS(=O)(=O)CC(C)(C)CCCC2c1cccc(CCC(=O)O)c1` (stereo not shown) [Compound 62, 3-[3-(3-Ethyl-22,28-difluoro-10,10-dimethyl-12,12-dioxo-24-oxa-12λ6-thia-3,4,19,30-tetrazapentacyclo[23.3.1.12,5.015,23.016,20]triaconta-1(29),2(30),4,15,17,20,22,25,27-nonaen-6-yl)phenyl]propanoic Acid], the “DSLS 3D (100 μM ΔT)” value at NBD1 was “C (a value greater than 10 °C and less than or equal to 25 °C is marked “C”)”. Besides, the “TECC (AUC, 10 μM)” value at CFTR was “C (a value between 20 and 80 is marked “C”)”.
Turning to `Cn1nc2nc1-c1cc(ccc1F)Oc1c(F)cc3[nH]ccc3c1CCS(=O)(=O)CC(C)(C)CCCC2(C)c1cccc(CCCO)c1` (stereo not shown) [Compound 64, 3-[3-(22,28-Difluoro-3,6,10,10-tetramethyl-12,12-dioxo-24-oxa-12λ6-thia-3,4,19,30-tetrazapentacyclo[23.3.1.12,5.015,23.016,20]triaconta-1(29),2(30),4,15,17,20,22,25,27-nonaen-6-yl)phenyl]propan-1-ol], the “DSLS 3D (100 μM ΔT)” value at NBD1 was “C (a value greater than 10 °C and less than or equal to 25 °C is marked “C”)”. Also, the “TECC (AUC, 10 μM)” value at CFTR is recorded as “B (a value between 12-20 is marked “B”)”.
With `Cn1nc2nc1-c1cc(ccc1F)Oc1c(F)cc3[nH]ccc3c1CCS(=O)(=O)CC(C)(C)COCC2(C)c1cccc(CC(=O)O)c1` (stereo not shown) [Compound 69, 2-[3-(22,28-Difluoro-3,6,10,10-tetramethyl-12,12-dioxo-8,24-dioxa-12λ6-thia-3,4,19,30-tetrazapentacyclo[23.3.1.12,5.015,23.016,20]triaconta-1(29),2(30),4,15,17,20,22,25,27-nonaen-6-yl)phenyl]acetic Acid], on NBD1, the “DSLS 3D (100 μM ΔT)” value was “C (a value greater than 10 °C and less than or equal to 25 °C is marked “C”)”. Besides, the “TECC (AUC, 10 μM)” value on CFTR was “A (a TECC value less than 12 is marked “A”)”.
For `CC1(C)CCCC(c2cccc(CCC(=O)O)c2)n2cc(Cl)c(n2)-c2cc(ccc2F)Oc2c(F)cc3[nH]ccc3c2CCS(=O)(=O)C1` (stereo not shown) [Compound 70, 3-[3-(3-Chloro-22,28-difluoro-10,10-dimethyl-12,12-dioxo-24-oxa-12λ6-thia-5,19,30-triazapentacyclo[23.3.1.12,5.015,23.016,20]triaconta-1(29),2(30),3,15,17,20,22,25,27-nonaen-6-yl)phenyl]propanoic Acid], the “DSLS 3D (100 μM ΔT)” value at NBD1 is “C (a value greater than 10 °C and less than or equal to 25 °C is marked “C”)”. In addition, the “TECC (AUC, 10 μM)” value at CFTR is recorded as “A (a TECC value less than 12 is marked “A”)”.
Regarding `CC1(C)CCCC(c2cccc(CCC(=O)O)c2)n2ncc(Cl)c2-c2cc(ccc2F)Oc2c(F)cc3[nH]ccc3c2CCS(=O)(=O)C1` (stereo not shown) [Compound 71, 3-[3-(3-Chloro-23,29-difluoro-11,11-dimethyl-13,13-dioxo-25-oxa-13λ6-thia-5,6,20-triazapentacyclo[24.3.1.02,6.016,24.017,21]triaconta-1(30),2,4,16,18,21,23,26,28-nonaen-7-yl)phenyl]propanoic Acid], the “DSLS 3D (100 μM ΔT)” value at NBD1 is “C (a value greater than 10 °C and less than or equal to 25 °C is marked “C”)”. In addition, the “TECC (AUC, 10 μM)” value on CFTR is “A (a TECC value less than 12 is marked “A”)”.
As to `CC(C)n1nc2nc1C(C)(c1cccc(CCC(=O)O)c1)CCCC(C)(C)CS(=O)(=O)CCc1c(c(F)cc3[nH]ccc13)Oc1ccc(F)c-2c1` (stereo not shown) [Compound 74, 3-[3-(22,28-Difluoro-4-isopropyl-6,10,10-trimethyl-12,12-dioxo-24-oxa-12λ6-thia-3,4,19,30-tetrazapentacyclo-[23.3.1.12,5.015,23.016,20]triaconta-1(29),2,5(30),15,17,20,22,25,27-nonaen-6-yl)phenyl]propanoic acid], on NBD1, the “DSLS 3D (100 μM ΔT)” value was “C (a value greater than 10 °C and less than or equal to 25 °C is marked “C”)”. Moreover, the “TECC (AUC, 10 μM)” value at CFTR is reported as “A (a TECC value less than 12 is marked “A”)”.
Take `CC(C)n1nc2nc1-c1cc(ccc1F)Oc1c(F)cc3[nH]ccc3c1CCS(=O)(=O)CC(C)(C)CCCC2(C)c1cccc(CCC(=O)O)c1` (stereo not shown) [Compound 75, 3-[3-(22,28-difluoro-3-isopropyl-6,10,10-trimethyl-12,12-dioxo-24-oxa-12λ6-thia-3,4,19,30-tetrazapentacyclo-[23.3.1.12,5.015,23.016,20]triaconta-1(29),2(30),4,15,17,20,22,25,27-nonaen-6-yl)phenyl]propanoic Acid]: the “DSLS 3D (100 μM ΔT)” value on NBD1 was “C (a value greater than 10 °C and less than or equal to 25 °C is marked “C”)”. Besides, the “TECC (AUC, 10 μM)” value on CFTR was “A (a TECC value less than 12 is marked “A”)”.
Take `Cc1cn2nc1-c1cc(ccc1F)Oc1c(F)cc3[nH]ccc3c1CCS(=O)(=O)CC(C)(C)COCCC2c1cccc(CCC(=O)O)c1` (stereo not shown) [Compound 76, 3-[3-(23,29-Difluoro-3,11,11-trimethyl-13,13-dioxo-9,25-dioxa-13λ6-thia-5,20,31-triazapentacyclo[24.3.1.12,5.016,24.017,21]hentriaconta-1(30),2(31),3,16,18,21,23,26,28-nonaen-6-yl)phenyl]propanoic Acid]: the “DSLS 3D (100 μM ΔT)” value on NBD1 was “C (a value greater than 10 °C and less than or equal to 25 °C is marked “C”)”. Besides, the “TECC (AUC, 10 μM)” value at CFTR was “A (a TECC value less than 12 is marked “A”)”.
